Laboratory results as given in ChEMBL document CHEMBL1201862, “PubChem BioAssay data set” (2004).
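Where inhibition never reached the appropriate level, the endpoint shown equals the highest concentration tested. Otherwise, values were interpolated linearly from a five-concentration, 48-hour dose response in 96-well plates. At the GI50, growth is halved.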 Calls of active or inactive are those of the source. No stated cut-off is given here; in the data, active = GI50 up to about 1.1 µM and inactive = higher.

Columns and labels:
Assay in all cases: NCI tumour cell line growth inhibition, 48 h
NCI-H460 = system: NCI-H460
OVCAR-4 = system: OVCAR-4
U-251 = system: U-251
SF-295 = system: SF-295
NCI-H23 = system: NCI-H23
HCT-15 = system: HCT-15
M14 = system: M14
A549 = system: A549
HCC 2998 = system: HCC 2998
HCT-116 = system: HCT-116
SW-620 = system: SW-620
UACC-62 = system: UACC-62
SNB-75 = system: SNB-75
MDA-MB-231 = system: MDA-MB-231
HL-60 = system: HL-60
786-0 = system: 786-0
CAKI-1 = system: CAKI-1
DU-145 = system: DU-145
RXF 393 = system: RXF 393
A498 = system: A498
TK-10 = system: TK-10
UO-31 = system: UO-31
LOX IMVI = system: LOX IMVI
OVCAR-5 = system: OVCAR-5
MOLT-4 = system: MOLT-4
EKVX = system: EKVX
HT-29 = system: HT-29
RPMI-8226 = system: RPMI-8226
BT-549 = system: BT-549
NCI/ADR-RES = system: NCI/ADR-RES
T47D = system: T47D
NCI-H522 = system: NCI-H522
COLO 205 = system: COLO 205
HOP-92 = system: HOP-92
MCF7 = system: MCF7
NCI-H226 = system: NCI-H226
SK-OV-3 = system: SK-OV-3
SNB-19 = system: SNB-19
SR = system: SR
KM12 = system: KM12
SF-539 = system: SF-539
Malme-3M = system: Malme-3M
ACHN = system: ACHN
MDA-MB-435 = system: MDA-MB-435
SF-268 = system: SF-268
IGROV-1 = system: IGROV-1
SK-MEL-5 = system: SK-MEL-5
SK-MEL-2 = system: SK-MEL-2
K562 = system: K562
PC-3 = system: PC-3
Hs-578T = system: Hs-578T
OVCAR-8 = system: OVCAR-8
OVCAR-3 = system: OVCAR-3
HOP-62 = system: HOP-62
SK-MEL-28 = system: SK-MEL-28
SN12C = system: SN12C

`Nc1ccc(S(=O)(=O)Nc2nnc(S(N)(=O)=O)s2)cc1` was tested. Which GI50 (NCI-H460) did it give?
Its GI50 is > 100 µM (inactive).

What about the GI50 (OVCAR-4) of the same compound?
The GI50 was > 100 µM (inactive).

And the GI50 (U-251)?
The GI50 was > 100 µM (inactive).

What about the GI50 (SF-295) of the same compound?
The GI50 was > 100 µM (inactive).

What about the GI50 (NCI-H23) of the same compound?
The GI50 was > 100 µM (inactive).

What about the GI50 (HCT-15) of the same compound?
Its GI50 is greater than 100 µM.

And the GI50 (M14)?
Its GI50 is > 100 µM (inactive).

And the GI50 (A549)?
Its GI50 is > 100 µM (inactive).

What about the GI50 (HCC 2998) of the same compound?
The GI50 was > 100 µM (inactive).

And the GI50 (HCT-116)?
The GI50 was > 100 µM (inactive).

And the GI50 (SW-620)?
Its GI50 is > 100 µM (inactive).

What about the GI50 (UACC-62) of the same compound?
The GI50 was > 100 µM (inactive).

And the GI50 (SNB-75)?
The GI50 was > 100 µM (inactive).

And the GI50 (MDA-MB-231)?
The GI50 was > 100 µM (inactive).

And the GI50 (HL-60)?
The GI50 was > 100 µM (inactive).

And the GI50 (786-0)?
Its GI50 is > 100 µM (inactive).

What about the GI50 (CAKI-1) of the same compound?
The GI50 was > 100 µM (inactive).

What about the GI50 (DU-145) of the same compound?
Its GI50 is > 100 µM (inactive).

And the GI50 (RXF 393)?
The GI50 was > 100 µM (inactive).

And the GI50 (A498)?
The GI50 was > 100 µM (inactive).

And the GI50 (TK-10)?
Its GI50 is > 100 µM (inactive).

And the GI50 (UO-31)?
The GI50 was > 100 µM (inactive).

And the GI50 (LOX IMVI)?
The GI50 was > 100 µM (inactive).

And the GI50 (OVCAR-5)?
Its GI50 is > 100 µM (inactive).

What about the GI50 (MOLT-4) of the same compound?
The GI50 was > 100 µM (inactive).

What about the GI50 (EKVX) of the same compound?
Its GI50 is > 100 µM (inactive).

And the GI50 (HT-29)?
The GI50 was > 100 µM (inactive).

And the GI50 (RPMI-8226)?
Its GI50 is > 100 µM (inactive).

And the GI50 (BT-549)?
Its GI50 is > 100 µM (inactive).

And the GI50 (NCI/ADR-RES)?
The GI50 was > 100 µM (inactive).

And the GI50 (T47D)?
The GI50 was > 100 µM (inactive).

What about the GI50 (NCI-H522) of the same compound?
The GI50 was > 100 µM (inactive).

And the GI50 (COLO 205)?
The GI50 was > 100 µM (inactive).

And the GI50 (HOP-92)?
The GI50 was 34.5 µM (inactive).

What about the GI50 (MCF7) of the same compound?
Its GI50 is > 100 µM (inactive).

What about the GI50 (NCI-H226) of the same compound?
Its GI50 is 45.4 µM (inactive).

What about the GI50 (SK-OV-3) of the same compound?
Its GI50 is > 100 µM (inactive).

And the GI50 (SNB-19)?
Its GI50 is > 100 µM (inactive).

And the GI50 (SR)?
Its GI50 is > 100 µM (inactive).

What about the GI50 (KM12) of the same compound?
Its GI50 is > 100 µM (inactive).

What about the GI50 (SF-539) of the same compound?
Its GI50 is > 100 µM (inactive).

And the GI50 (Malme-3M)?
Its GI50 is > 100 µM (inactive).

What about the GI50 (ACHN) of the same compound?
Its GI50 is > 100 µM (inactive).

And the GI50 (MDA-MB-435)?
The GI50 was > 100 µM (inactive).

And the GI50 (SF-268)?
Its GI50 is > 100 µM (inactive).

What does the source list for `C/C(=N/NC(=O)c1ccncc1)C(F)(F)F`?
GI50 (IGROV-1): > 100 µM (inactive); GI50 (NCI-H460): > 10 µM (inactive); GI50 (U-251): > 100 µM (inactive); GI50 (SF-295): > 100 µM (inactive); GI50 (NCI-H23): > 100 µM (inactive); GI50 (HCT-15): > 100 µM; GI50 (M14): > 100 µM (inactive); GI50 (HCC 2998): > 100 µM (inactive); GI50 (SK-MEL-5): > 100 µM (inactive); GI50 (HCT-116): > 100 µM (inactive); GI50 (UACC-62): > 100 µM (inactive); GI50 (SNB-75): > 100 µM (inactive); GI50 (SK-MEL-2): > 100 µM (inactive); GI50 (HL-60): > 100 µM (inactive); GI50 (CAKI-1): > 100 µM (inactive); GI50 (DU-145): > 100 µM (inactive); GI50 (RXF 393): > 100 µM (inactive); GI50 (A498): > 100 µM (inactive); GI50 (K562): > 100 µM (inactive); GI50 (TK-10): > 100 µM (inactive); GI50 (UO-31): > 100 µM (inactive); GI50 (OVCAR-5): > 100 µM (inactive); GI50 (PC-3): > 100 µM (inactive); GI50 (MOLT-4): > 100 µM (inactive); GI50 (HT-29): > 100 µM (inactive); GI50 (RPMI-8226): > 100 µM (inactive); GI50 (Hs-578T): > 100 µM (inactive); GI50 (OVCAR-8): > 100 µM (inactive); GI50 (BT-549): > 100 µM (inactive); GI50 (NCI/ADR-RES): > 100 µM (inactive); GI50 (T47D): > 100 µM (inactive); GI50 (NCI-H522): > 100 µM (inactive); GI50 (COLO 205): > 100 µM (inactive); GI50 (HOP-92): > 100 µM (inactive); GI50 (MCF7): > 100 µM (inactive); GI50 (OVCAR-3): > 100 µM (inactive); GI50 (NCI-H226): > 100 µM (inactive); GI50 (SK-OV-3): > 100 µM (inactive); GI50 (SNB-19): > 100 µM (inactive); GI50 (SR): > 100 µM (inactive); GI50 (HOP-62): > 100 µM (inactive); GI50 (KM12): > 100 µM (inactive); GI50 (Malme-3M): > 100 µM (inactive); GI50 (MDA-MB-435): > 100 µM (inactive); GI50 (SK-MEL-28): > 100 µM (inactive); GI50 (SN12C): > 100 µM (inactive)
